Reference: publication PMC4557804 (Journal of medicinal chemistry, 2015)
Where a name gives a salt, the structure may show the parent alone.

How the values were obtained:
SphK2 [1] = molecular target: T1, SphK2 (Homo sapiens, UniProt Q9NRA0); assay: biochemical; conditions: for inhibition at 1 µM: read-out: inhibition at SphK2
T1 sequence (Q9NRA0 1-654): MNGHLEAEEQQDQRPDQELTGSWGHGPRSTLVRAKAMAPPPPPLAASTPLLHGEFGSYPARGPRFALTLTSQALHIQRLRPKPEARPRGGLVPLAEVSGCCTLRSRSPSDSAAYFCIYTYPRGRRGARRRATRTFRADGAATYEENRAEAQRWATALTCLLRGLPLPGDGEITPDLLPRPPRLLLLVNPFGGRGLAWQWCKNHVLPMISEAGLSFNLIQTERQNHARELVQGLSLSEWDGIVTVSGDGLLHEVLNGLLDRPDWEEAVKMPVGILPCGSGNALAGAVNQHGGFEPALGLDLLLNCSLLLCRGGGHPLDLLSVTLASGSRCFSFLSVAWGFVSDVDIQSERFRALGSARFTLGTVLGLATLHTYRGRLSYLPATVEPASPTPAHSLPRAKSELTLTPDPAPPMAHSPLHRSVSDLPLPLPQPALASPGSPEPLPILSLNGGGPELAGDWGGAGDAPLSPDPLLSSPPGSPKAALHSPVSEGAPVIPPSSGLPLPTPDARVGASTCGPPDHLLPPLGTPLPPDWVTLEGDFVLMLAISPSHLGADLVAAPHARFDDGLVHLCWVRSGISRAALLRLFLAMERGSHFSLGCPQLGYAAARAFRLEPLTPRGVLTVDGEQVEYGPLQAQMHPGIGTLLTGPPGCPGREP

SphK1 [2] = molecular target: T2, SphK1 (Homo sapiens, UniProt Q9NYA1); conditions: screen at 1 μM
SphK2 [3] = molecular target: T1, SphK2; conditions: screen at 1 μM
[4] = cited from earlier work
SphK1 [5] = molecular target: T2, SphK1; assay: biochemical; conditions: read-out: inhibition at SphK1

T2 sequence (Q9NYA1 whole entry, species assumed): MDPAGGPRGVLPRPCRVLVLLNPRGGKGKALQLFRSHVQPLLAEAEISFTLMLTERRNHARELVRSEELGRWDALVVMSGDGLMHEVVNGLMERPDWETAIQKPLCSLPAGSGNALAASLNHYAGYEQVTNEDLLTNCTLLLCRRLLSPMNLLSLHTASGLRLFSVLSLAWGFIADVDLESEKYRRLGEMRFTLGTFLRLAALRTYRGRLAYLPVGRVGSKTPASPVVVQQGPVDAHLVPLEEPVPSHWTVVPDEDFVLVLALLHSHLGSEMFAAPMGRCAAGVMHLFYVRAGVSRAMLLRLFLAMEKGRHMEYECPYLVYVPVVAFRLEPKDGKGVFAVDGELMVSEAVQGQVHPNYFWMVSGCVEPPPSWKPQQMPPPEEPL

SMILES | inhibitory activity at SphK1 (SphK1 [2]) | inhibitory activity at SphK2 (SphK2 [3]) | inhibition at 1 µM (SphK2 [1]) [%] | inhibition at 1 µM (SphK1 [5]) [%] | also measured
CCCCCCCCc1ccc(-c2noc([C@@H]3CCN3C(=N)N)n2)cc1 [Compound 7j, (S)-2-(3-(4-Octylphenyl)-1,2,4-oxadiazol-5-yl)azetidine-1-carboximidamide Hydrochloride] | – | – | – | – | Ki (SphK2 [1]): 1000 nM
CCCCCCCCCCc1ccc(NC(=O)[C@H]2CCCN2C(=N)N)cc1.O=C(O)C(F)(F)F [Compound 29b, (R)-Amino(2-((4-decylphenyl)carbamoyl)pyrrolidin-1-yl)-methaniminium 2,2,2-Trifluoroacetate] | inactive | inactive | – | – | –
CCCCCCCCc1ccc(CNC(=O)[C@@H]2CCCN2C(=N)N)cc1.O=C(O)C(F)(F)F [Compound 31, (S)-Amino(2-((4-octylbenzyl)carbamoyl)pyrrolidin-1-yl)-methaniminium 2,2,2-Trifluoroacetate] | no significant inhibitory effect | no significant inhibitory effect | – | – | –
CCCCCCCCc1ccc(-c2noc([C@@H]3CCN(C(=N)N)C3)n2)cc1.Cl [Compound 20b, (R)-Amino(3-(3-(4-octylphenyl)-1,2,4-oxadiazol-5-yl)-pyrrolidin-1-yl)methaniminium Chloride] | essentially inactive | essentially inactive | – | – | –
O=C(NCc1ccncc1)C12CC3CC(C1)CC(c1ccc(Cl)cc1)(C3)C2 [ABC294640] | – | – | – | – | S1P levels in vivo [4]: decreased
CCCCCCCCc1ccc(-c2noc(C3CN(C(=N)N)C3)n2)cc1.Cl [Compound 20a, Amino(3-(3-(4-octylphenyl)-1,2,4-oxadiazol-5-yl)azetidin-1-yl)methaniminium Chloride] | essentially inactive | essentially inactive | – | – | –
CCCCCCCCc1ccc(-c2noc([C@@H](NC(=N)N)C(C)C)n2)cc1 [Compound 7d, (S)-1-(2-Methyl-1-(3-(4-octylphenyl)-1,2,4-oxadiazol-5-yl)-propyl)guanidine Hydrochloride] | – | – | < 20 | < 20 | –
CCCCCCCCCCc1ccc(NC(=O)[C@@H]2CCCN2C(=N)N)cc1.O=C(O)C(F)(F)F [Compound 29a, (S)-Amino(2-((4-decylphenyl)carbamoyl)pyrrolidin-1-yl)-methaniminium 2,2,2-Trifluoroacetate] | inactive | inactive | – | – | –
CCCCCCCCc1ccc(-c2noc([C@H](CO)NC(=N)N)n2)cc1 [Compound 7e, (S)-Amino((2-hydroxy-1-(3-(4-octylphenyl)-1,2,4-oxadiazol-5-yl)ethyl)amino)methaniminium Chloride] | – | – | < 20 | < 20 | –
CCCCCCCCc1ccc(-c2noc(CNC(=N)N)n2)cc1 [Compound 7a, 1-((3-(4-Octylphenyl)-1,2,4-oxadiazol-5-yl)methyl)guanidine Hydrochloride] | – | – | < 20 | < 20 | –
CCCCCCCCc1ccc(-c2noc(CN(C)C(=N)N)n2)cc1.Cl [Compound 7b, 1-Methyl-1-((3-(4-octylphenyl)-1,2,4-oxadiazol-5-yl)methyl)-guanidine Hydrochloride] | inactive | inactive | – | – | –
CCCCCCCCc1ccc(-c2noc([C@H](C)NC(=N)N)n2)cc1 [Compound 7c, (S)-1-(1-(3-(4-Octylphenyl)-1,2,4-oxadiazol-5-yl)ethyl)-guanidine Hydrochloride] | – | – | < 20 | < 20 | –
